Data as given in PubChem BioAssay AID248 (DTP/NCI, 2004).
Several values for one entry are separate records, joined by “and”; a condition that tells them apart may be missing. Equal values may be shown once. Inconclusive results and toxic doses are left out.

Test system: L1210 leukemia ip in BDF1 mice, survival T/C
Test: NCI In Vivo Anticancer Drug Screen. Data for tumor model L1210 Leukemia (intraperitoneal) in B6D2F1 (BDF1) mice
Settings: endpoint: mean survival time, higher = longer survival
Outline: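 Tumor was transplanted into mice, which were then dosed with test compound or vehicle alone. Survival was recorded for each group, and the treated figure was expressed relative to the control figure.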

[1] = dose: 100.0 mg/kg/injection, schedule: Q04DX003 (ip), vehicle: saline with Tween-80
[2] = dose: 200.0 mg/kg/injection, schedule: Q04DX003 (ip), vehicle: saline with Tween-80
[3] = dose: 400.0 mg/kg/injection, schedule: Q04DX003 (ip), vehicle: saline with Tween-80
[4] = dose: 100.0 mg/kg/injection, schedule: Q01DX001 (ip), vehicle: carboxymethylcellulose (CMC)
[5] = dose: 200.0 mg/kg/injection, schedule: Q01DX001 (ip), vehicle: carboxymethylcellulose (CMC)
[6] = dose: 400.0 mg/kg/injection, schedule: Q01DX001 (ip), vehicle: carboxymethylcellulose (CMC)
[7] = dose: 100.0 mg/kg/injection, schedule: Q01DX009 (ip), vehicle: saline
[8] = dose: 200.0 mg/kg/injection, schedule: Q01DX009 (ip), vehicle: saline
[9] = dose: 400.0 mg/kg/injection, schedule: Q01DX009 (ip), vehicle: saline
[10] = dose: 100.0 mg/kg/injection, schedule: Q01DX001 (ip), vehicle: saline
[11] = dose: 200.0 mg/kg/injection, schedule: Q01DX001 (ip), vehicle: saline
[12] = dose: 400.0 mg/kg/injection, schedule: Q01DX001 (ip), vehicle: saline
[13] = dose: 100.0 mg/kg/injection, schedule: Q04DX003 (ip), vehicle: Klucel (hydroxypropylcellulose) (HPC)
[14] = dose: 200.0 mg/kg/injection, schedule: Q04DX003 (ip), vehicle: Klucel (hydroxypropylcellulose) (HPC)
[15] = dose: 100.0 mg/kg/injection, schedule: Q04DX002 (ip), vehicle: saline with Tween-80

## COC(=O)CCC(=O)Nc1ccccc1C(C)=O
[1]
  T/C: 104 % of control
[2]
  T/C: 93 % of control
[3]
  T/C: 93 % of control

## O=C(Nc1cc([N+](=O)[O-])ccc1O)Nc1cc(C(F)(F)F)ccc1Cl
[4]
  T/C: 90 % of control
dose: 100.0 mg/kg/injection, schedule: Q01DX009 (ip), vehicle: carboxymethylcellulose (CMC)
  T/C: 95 % of control and 103 % of control
dose: 100.0 mg/kg/injection, schedule: Q04DX002 (ip), vehicle: carboxymethylcellulose (CMC)
  T/C: 97 % of control and 101 % of control
dose: 100.0 mg/kg/injection, schedule: Q04DX003 (ip), vehicle: carboxymethylcellulose (CMC)
  T/C: 94 % of control
[5]
  T/C: 93 % of control
dose: 200.0 mg/kg/injection, schedule: Q01DX009 (ip), vehicle: carboxymethylcellulose (CMC)
  T/C: 93 % of control and 95 % of control
dose: 200.0 mg/kg/injection, schedule: Q04DX002 (ip), vehicle: carboxymethylcellulose (CMC)
  T/C: 93 % of control and 97 % of control
dose: 200.0 mg/kg/injection, schedule: Q04DX003 (ip), vehicle: carboxymethylcellulose (CMC)
  T/C: 92 % of control
[6]
  T/C: 92 % of control
dose: 400.0 mg/kg/injection, schedule: Q01DX009 (ip), vehicle: carboxymethylcellulose (CMC)
  T/C: 92 % of control and 93 % of control
dose: 400.0 mg/kg/injection, schedule: Q04DX002 (ip), vehicle: carboxymethylcellulose (CMC)
  T/C: 92 % of control and 90 % of control
dose: 400.0 mg/kg/injection, schedule: Q04DX003 (ip), vehicle: carboxymethylcellulose (CMC)
  T/C: 97 % of control

## Nc1c(S(=O)(=O)O)cc(Br)c2c1C(=O)c1ccccc1C2=O
[7]
  T/C: 92 % of control
dose: 100.0 mg/kg/injection, schedule: Q04DX003 (ip), vehicle: saline
  T/C: 96 % of control
[8]
  T/C: 95 % of control
dose: 200.0 mg/kg/injection, schedule: Q04DX003 (ip), vehicle: saline
  T/C: 93 % of control
[9]
  T/C: 101 % of control
dose: 400.0 mg/kg/injection, schedule: Q04DX003 (ip), vehicle: saline
  T/C: 95 % of control

## COc1ccccc1/C(C)=N\NC(N)=O
[10]
  T/C: 97 % of control
[11]
  T/C: 93 % of control
[12]
  T/C: 103 % of control

## CCN(CC)CCNc1ccc([N+](=O)[O-])c2sc3ccccc3c(=O)c12
dose: 17.7 mg/kg/injection, schedule: Q01DX Z (ip), vehicle: carboxymethylcellulose (CMC)
  T/C: 121 % of control
dose: 37.0 mg/kg/injection, schedule: Q01DX Z (ip), vehicle: methylcellulose (MC)
  T/C: 223 % of control
dose: 40.0 mg/kg/injection, schedule: Q01DX Z (ip), vehicle: carboxymethylcellulose (CMC)
  T/C: 152 % of control
dose: 56.0 mg/kg/injection, schedule: Q01DX Z (ip), vehicle: methylcellulose (MC)
  T/C: 201 % of control
dose: 60.0 mg/kg/injection, schedule: Q01DX Z (ip), vehicle: carboxymethylcellulose (CMC)
  T/C: 156 % of control
dose: 90.0 mg/kg/injection, schedule: Q01DX Z (ip), vehicle: carboxymethylcellulose (CMC)
  T/C: 181 % of control
dose: 126.0 mg/kg/injection, schedule: Q01DX Z (ip), vehicle: methylcellulose (MC)
  T/C: 115 % of control

## CCOP1(=S)OCCO1
[13]
  T/C: 100 % of control
[14]
  T/C: 103 % of control

## CC(C)CCCc1c[nH]c(=O)[nH]c1=O
dose: 100.0 mg/kg/injection, schedule: Q01DX009 (ip), vehicle: Klucel (hydroxypropylcellulose) (HPC)
  T/C: 105 % of control
dose: 100.0 mg/kg/injection, schedule: Q04DX003 (ip), vehicle: other
  T/C: 103 % of control
dose: 200.0 mg/kg/injection, schedule: Q01DX009 (ip), vehicle: Klucel (hydroxypropylcellulose) (HPC)
  T/C: 97 % of control
dose: 200.0 mg/kg/injection, schedule: Q04DX003 (ip), vehicle: other
  T/C: 101 % of control
dose: 400.0 mg/kg/injection, schedule: Q01DX009 (ip), vehicle: Klucel (hydroxypropylcellulose) (HPC)
  T/C: 97 % of control
dose: 400.0 mg/kg/injection, schedule: Q04DX003 (ip), vehicle: other
  T/C: 117 % of control

## O=C(NC1CCCCC1c1ccccc1)c1ccccc1 (stereo unspecified)
dose: 75.0 mg/kg/injection, schedule: Q01DX001 (ip), vehicle: carboxymethylcellulose (CMC)
  T/C: 97 % of control and 95 % of control
dose: 150.0 mg/kg/injection, schedule: Q01DX001 (ip), vehicle: carboxymethylcellulose (CMC)
  T/C: 97 % of control and 91 % of control
dose: 300.0 mg/kg/injection, schedule: Q01DX001 (ip), vehicle: carboxymethylcellulose (CMC)
  T/C: 94 % of control and 89 % of control

## C/C(=C/c1ccccc1)S(=O)(=O)c1ccccc1
[10]
  T/C: 105 % of control
[7]
  T/C: 91 % of control
[11]
  T/C: 100 % of control
[8]
  T/C: 94 % of control
[12]
  T/C: 105 % of control
[9]
  T/C: 93 % of control

## CC(=O)OCCN1C(=O)c2ccccc2C1=O
[13]
  T/C: 104 % of control
[14]
  T/C: 117 % of control
dose: 400.0 mg/kg/injection, schedule: Q04DX003 (ip), vehicle: Klucel (hydroxypropylcellulose) (HPC)
  T/C: 101 % of control

## c1ccc2c(c1)CCN(C1=NCCO1)C2
dose: 9.5 mg/kg/injection, schedule: Q01DX001 (ip), vehicle: saline
  T/C: 112 % of control
dose: 10.0 mg/kg/injection, schedule: Q04DX003 (ip), vehicle: saline
  T/C: 97 % of control
dose: 19.0 mg/kg/injection, schedule: Q01DX001 (ip), vehicle: saline
  T/C: 100 % of control
dose: 20.0 mg/kg/injection, schedule: Q04DX003 (ip), vehicle: saline
  T/C: 94 % of control
dose: 38.0 mg/kg/injection, schedule: Q01DX001 (ip), vehicle: saline
  T/C: 101 % of control
dose: 40.0 mg/kg/injection, schedule: Q04DX003 (ip), vehicle: saline
  T/C: 90 % of control

## COc1ccc(OC)c(N=C2C(=O)Nc3ccc(Br)cc32)c1
dose: 100.0 mg/kg/injection, schedule: Q01DX001 (ip), vehicle: saline with Tween-80
  T/C: 92 % of control
dose: 100.0 mg/kg/injection, schedule: Q01DX009 (ip), vehicle: saline with Tween-80
  T/C: 100 % of control
[15]
  T/C: 108 % of control and 113 % of control
[1]
  T/C: 101 % of control
dose: 200.0 mg/kg/injection, schedule: Q01DX001 (ip), vehicle: saline with Tween-80
  T/C: 88 % of control
dose: 200.0 mg/kg/injection, schedule: Q01DX009 (ip), vehicle: saline with Tween-80
  T/C: 94 % of control and 100 % of control
dose: 200.0 mg/kg/injection, schedule: Q04DX002 (ip), vehicle: saline with Tween-80
  T/C: 95 % of control and 97 % of control
[2]
  T/C: 93 % of control
dose: 400.0 mg/kg/injection, schedule: Q01DX001 (ip), vehicle: saline with Tween-80
  T/C: 90 % of control
dose: 400.0 mg/kg/injection, schedule: Q01DX009 (ip), vehicle: saline with Tween-80
  T/C: 101 % of control and 92 % of control
dose: 400.0 mg/kg/injection, schedule: Q04DX002 (ip), vehicle: saline with Tween-80
  T/C: 88 % of control and 89 % of control
[3]
  T/C: 88 % of control

## O/N=C1\c2cc(Cl)ccc2-c2c(Cl)cc(Cl)cc21
[4]
  T/C: 115 % of control
[5]
  T/C: 100 % of control
[6]
  T/C: 97 % of control

## O=C1OC(c2ccccc2)CC1N1CCCCC1 (stereo unspecified)
dose: 100.0 mg/kg/injection, schedule: Q01DX001 (ip), vehicle: saline sonified
  T/C: 109 % of control
dose: 200.0 mg/kg/injection, schedule: Q01DX001 (ip), vehicle: saline sonified
  T/C: 105 % of control

## CCCCCCCCCCCCCCCOc1cc(C=O)ccc1OC
dose: 100.0 mg/kg/injection, schedule: Q01DX001 (ip), vehicle: Klucel (hydroxypropylcellulose) (HPC)
  T/C: 87 % of control
dose: 200.0 mg/kg/injection, schedule: Q01DX001 (ip), vehicle: Klucel (hydroxypropylcellulose) (HPC)
  T/C: 87 % of control

## CCOC=Nc1c(/C=C(/O)C(=O)OCC)c[n+]([O-])nc1OC
dose: 25.0 mg/kg/injection, schedule: Q04DX002 (ip), vehicle: saline with Tween-80
  T/C: 92 % of control
dose: 25.0 mg/kg/injection, schedule: Q04DX002 (ip), vehicle: saline
  T/C: 92 % of control
dose: 50.0 mg/kg/injection, schedule: Q04DX002 (ip), vehicle: saline with Tween-80
  T/C: 96 % of control
dose: 50.0 mg/kg/injection, schedule: Q04DX002 (ip), vehicle: saline
  T/C: 96 % of control
[15]
  T/C: 89 % of control
dose: 100.0 mg/kg/injection, schedule: Q04DX002 (ip), vehicle: saline
  T/C: 96 % of control

## CCN1CCc2cc3c(cc2C1)OCO3
dose: 10.0 mg/kg/injection, schedule: Q01DX001 (ip), vehicle: carboxymethylcellulose (CMC)
  T/C: 98 % of control
dose: 20.0 mg/kg/injection, schedule: Q01DX001 (ip), vehicle: carboxymethylcellulose (CMC)
  T/C: 93 % of control
dose: 40.0 mg/kg/injection, schedule: Q01DX001 (ip), vehicle: carboxymethylcellulose (CMC)
  T/C: 94 % of control
dose: 80.0 mg/kg/injection, schedule: Q01DX001 (ip), vehicle: carboxymethylcellulose (CMC)
  T/C: 96 % of control
